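Dose response: 5 concentrations. Exposure: 48 h. Format: 96-well plates. Endpoint: linear interpolation; highest concentration if not reached. TGI marks complete inhibition of growth.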
Key:
Assay in all cases: NCI-60 cell line screen, 48 h
[1] = tested on: HCT-15 colon
[2] = tested on: DLD-1 colon
[3] = tested on: XF 498 CNS
[4] = tested on: DMS 273 small cell lung
[5] = tested on: SNB-78 CNS
[6] = tested on: M19-MEL melanoma
[7] = tested on: LXFL 529 NSCLC
[8] = tested on: RXF-631 renal
[9] = tested on: KM20L2 colon
[10] = tested on: DMS 114 small cell lung
[11] = tested on: HOP-62 NSCLC
[12] = tested on: HOP-18 NSCLC

Row | SMILES | TGI [1] | TGI [2] | TGI [3] | TGI [4] | TGI [5] | TGI [6] | TGI [7] | TGI [8] | TGI [9] | TGI [10] | TGI [11] | TGI [12]
1 | CC(C)C12C=CC(C)(CC1)n1c(=O)c3cc4ccccc4cc3c(=O)n12 (centres undefined) | > 100 µM | > 100 µM | > 100 µM | > 100 µM | > 100 µM | > 100 µM | > 100 µM | > 100 µM | > 100 µM | > 100 µM | > 100 µM | 
2 | COc1cccc2nc3cc(C)c(C)cc3nc12 | > 100 µM | > 100 µM | > 100 µM | > 100 µM | > 100 µM | > 100 µM | > 100 µM | > 100 µM | > 100 µM | > 100 µM | > 100 µM | > 100 µM
3 | CC(C)C1COC(c2cccc(C3=N[C@@H](C(C)C)CO3)n2)=N1 (some centres undefined) | > 100 µM | > 100 µM | > 100 µM | > 100 µM | > 100 µM | > 100 µM | > 100 µM | > 100 µM | > 100 µM | > 100 µM | > 100 µM | 
4 | Cc1ccc2c(C)c3ccc4ccccc4c3c[n+]2c1 | > 100 µM | > 100 µM |  | 32.7 µM | > 100 µM | 17.3 µM | 30.4 µM |  | > 100 µM | 31 µM | 51.2 µM | 43.2 µM

Reference: PubChem BioAssay (NCI)
